Data: BindingDB's records for doi:10.1016/j.bmcl.2019.126886 (Tokyo University of Agriculture, 2020)

Test: Inhibition of PKCbeta in rat RBL2H3 cells assessed as inhibition of mouse anti-DNP IgE-stimulated beta-hexosaminidase release preincubated for 15 mins followed by mouse anti-DNP IgE stimulation and measured after 3 hrs by 4-nitropheny1-2-acetamide-2-deoxy-beta-glucopyranoside substrate based colorimetric method

IC50: 10.4 µM
Structure (SMILES): O=C1O/C(=C(/C(=O)O)c2ccc(O)c(O)c2)C(O)=C1c1ccc(O)c(O)c1
